Experimental data taken from patent US10144690B2, “1,2-diphenylethylene glycol compounds for combating aging of the skin, and cosmetic use thereof” (L'OREAL, priority 2014, dated 2018).

Tested on: phospho-AMPK (Thr-172) (p-AMPK)
Assay: p-AMPK expression by Western blotting in normal human epidermal keratinocytes (p-AMPK/GAPDH ratio relative to control)
Assay type: cell-based
Details: 12 hours incubation
Description: Normal human epidermal keratinocytes are seeded at 180 000 cells per well and cultured in SFM culture medium (supplier Gibco) supplemented with 0.25 ng/ml EGF, 25 μg/ml of pituitary extract and 25 μg/ml gentamicin, up to confluence, and incubated in a humid oven at 37° C. and 5% CO2. The culture medium was then replaced with test medium (SFM (Gibco) supplemented with 25 μg/ml gentamicin) containing or not containing (control) the test compounds, the combinations or the reference (AICAR—(5-amino-4-imidazolecarboxamide riboside) at 500 μM). The cells were then incubated for 12 hours.
The level of expression of p-AMPK was analyzed by Western blotting.
At the end of the incubation, the proteins were extracted and quantified and then separated by electrophoresis on 10% polyacrylamide gel and then transferred onto a nitrocellulose membrane.
Between each successive revelation, the antibodies were detached using a “stripping” buffer. The images were acquired with a Fuji LAS 3000 chemiluminescence scanner (Fujifilm) and the densitometric analyses were performed using the Multigauge software (Fujifilm).
An increase in the phosphorylated form of AMPK (active form of the enzyme) relative to the control is evaluated in this test.
Expressed in the form of the p-AMPK/GAPDH ratio relative to the control (100%): […]

Row | SMILES | p-AMPK/GAPDH ratio relative to the control (100%) (test compound 1 μM) [%] | p-AMPK/GAPDH ratio relative to the control (100%) (test compound 10 μM) [%] | p-AMPK/GAPDH ratio relative to the control (100%) (test compound 100 μM) [%]
1 | COc1ccc([C@@H](O)[C@H](O)c2ccc(OC)cc2)cc1 [Compound 1] | 133 | 171 | 198
2 | COc1ccc(C(O)[C@H](O)c2ccc(OC)cc2)cc1 (stereo partly drawn) [Compound 2] | 94 | 134 | 149
3 | COc1cc(C(O)C(O)c2ccc(O)c(OC)c2)ccc1O (stereo not drawn) [Compound 3] | 112 | 147 | 158
4 | Oc1ccc(C(O)C(O)c2cc(O)cc(O)c2)cc1 (stereo not drawn) [Compound 4] | 132 | 140 | 159
